From US20240091149A1, “COMPOSITIONS AND METHODS FOR IMPROVING GASTROINTESTINAL ABSORPTION OF ELECTROLYTES” (IGH NATURALS, INC., priority 2020, published 2024)

System: HT-29-MTX intestinal cells
Experiment: IL-10 secretion by intestinal cells
Type: cell-based
Details: cells treated with cisplatin alone; FIG. 3
Text: IL-10 secretion peaked between 24-48 hrs and preceded mucin secretion (72-96 hr).

SMILES: N.N.[Cl][Pt][Cl] [cisplatin]
- IL-10 secretion: secreted more IL-10
